The source of these data is patent publication US11866695B2, “Methods and systems and related compositions for mixtures separation with a solid matrix” (CALIFORNIA INSTITUTE OF TECHNOLOGY, priority 2019, dated 2024).

Test [1] deals with qPCR spiked with 5×104 copies λ phage DNA. In words: qPCR reaction inhibition by dilutions of NA extraction kit buffers. It counts as biochemical. Conditions: for Avg Cq: 9 replicates, non-detects assigned 40 cycles. As to the method: qPCR reactions contained 1× Bio-Rad SsoFast Supermix (1725201, Bio-Rad), PCR primers (IDT) at […] each, and were supplemented with nuclease-free water up to 10 μL. Each 96-well plate (thin-wall clear well, HSP9641, Bio-Rad) was sealed (Microseal B, MSB1001, Bio-Rad) and briefly spun in a Mini Plate Spinner Centrifuge (14-100-141, Fisher Scientific). Heating and real-time imaging were performed on the Bio-Rad CFX-96 Touch Real-Time PCR Detection System by heating to 95° C. for 5 min, cycling 40 times between 95° C. for 15 s, 60° C. for 15 s, and 72° C. for 20 s, and taking a melt-curve analysis. For the E. coli DNA dilution experiment, qPCR was run for 60 cycles. Fluorescence readings were taken at the end of each extension step. Quantification cycle (Cq) was determined when the software's automated baseline corrected fluorescence reached 200 RFU.
(§1) Confidence intervals were calculated assuming the populations to be normally distributed and using a t statistic. For buffer inhibition experiments, statistical analysis was performed by a 1-tailed unequal variance t-test (N=9) comparing the water condition (control) to each buffer concentration (H1: the mean is delayed). For the subsequent experiments, a 2-tailed unequal variance t-test (H1: the means are different) was used. Non-detects were assigned the maximum possible Cq measurement of 40 cycles or a TTP of 46.7 min to indicate the lack of amplification. Although this approach introduces some bias into the analysis, it is believed this is the best representation for handling non-detects (other alternatives include excluding the non-detects or assigning non-detect values to the average of those that amplified).
These two commercial kits in particular were chosen because they both utilize minimal protocols (lysis, wash, elute) with no added steps (e.g. bacterial pellet spins, proteinase K, lysozyme, DNase/RNase, filtration, etc.). Specifically, an experiment was conducted to identify the concentration at which each buffer inhibits qPCR and LAMP. First, buffers were added at half-log dilutions (from 10% down to 0.032%) into λ phage spiked qPCR or LAMP reactions (1 μL diluted buffer, 1 μL template, 8 μL reaction mix).
A general note: Quantitative PCR measures a nucleic acid by following its amplification.

Test [2] concerns LAMP spiked with 5×104 copies λ phage DNA. In words: LAMP reaction inhibition by dilutions of NA extraction kit buffers. Conditions: for Avg TTP: 9 replicates, non-detects assigned 46.7 min. It counts as biochemical. The method, then:
LAMP primers (Integrated DNA Technologies (IDT), Coralville, Iowa, USA) were designed, ordered, and added at NEB's recommended concentrations of […] FIP/BIP, 0.2μM F3/B3, and […] LoopF/B.
Each 96-well plate was sealed and briefly spun. […] Time-to-positive (TTP) was determined when the software's automated baseline corrected fluorescence reached 1000 RFU.
as §1, with “Non-detects were assigned the maximum possible Cq measurement of 40 cycles or a TTP of 46.7 min to indicate the lack of amplification.” left out
These two commercial kits in particular were chosen because they both utilize minimal protocols (lysis, wash, elute) with no added steps (e.g. bacterial pellet spins, proteinase K, lysozyme, DNase/RNase, filtration, etc.). Specifically, an experiment was conducted to identify the concentration at which each buffer inhibits qPCR and LAMP.

Setting [3] is: 0.03% buffer vs water condition (0%).
The mark [4] stands for this setting: 0.1% buffer vs water condition (0%).
The mark [5] stands for this setting: 0.32% buffer vs water condition (0%).
[6] abbreviates: 1% buffer vs water condition (0%).
Setting [7] is: 3.2% buffer vs water condition (0%).
Where [8] appears, read: 10% buffer vs water condition (0%).

Molecules are shown by their SMILES.

In the case of `CCO` [Ethanol, ethanol], the “Avg Cq” value in test [1] (0.03% buffer in qPCR) stood at 20.1 cycles; in test [1] (0.1% buffer in qPCR), 20.2 cycles; in test [1] (0.32% buffer in qPCR), 20.2 cycles; in test [1] (1% buffer in qPCR) it was 20.1 cycles; in test [1] (3.2% buffer in qPCR), 20.6 cycles; in test [1] (10% buffer in qPCR) it was 27.5 cycles. The ΔCq in test [1] (setting [3]) amounted to 0.0 cycles; in test [1] (setting [4]), 0.1 cycles; in test [1] (setting [5]), 0.1 cycles; in test [1] (setting [6]) it was 0.0 cycles; in test [1] (setting [7]) it was 0.5 cycles; in test [1] (setting [8]), 7.4 cycles. Moreover, the “Avg TTP” value in test [2] (0.03% buffer in LAMP) amounted to 6.4 min; in test [2] (0.1% buffer in LAMP) it was 6.5 min; in test [2] (0.32% buffer in LAMP), 6.6 min; in test [2] (1% buffer in LAMP) it was 6.9 min; in test [2] (3.2% buffer in LAMP) it was 9.7 min; in test [2] (10% buffer in LAMP), 46.7 min. In addition, the ΔTTP in test [2] (setting [3]) is 0.1 min; in test [2] (setting [4]), 0.1 min; in test [2] (setting [5]), 0.2 min; in test [2] (setting [6]) it was 0.5 min; in test [2] (setting [7]) it was 3.3 min; in test [2] (setting [8]) it was 40.3 min.
